Experiments:
Assay in all cases: relative viability (nuclei count vs DMSO), 5 days (fraction); higher = more cells survive
[1] = compound: CC1=CN2C(=O)C=C(N=C2C(=C1)C(C)NC3=CC=CC=C3)N4CCOCC4 [TGX 221] + CS(=O)(=O)CCNCc1ccc(-c2ccc3ncnc(Nc4ccc(OCc5cccc(F)c5)c(Cl)c4)c3c2)o1 [Lapatinib] (partner 2 µM)
Procedure, shortened: (§1)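 Relative viability equals treated-well nuclei counts divided by vehicle-well nuclei counts. Counts came from 4× images of lung cancer cell lines grown in 1536-well plates for 5 days after pin-tool dosing on the day after seeding. Dosing used one drug alone or a fixed anchor-drug dose plus five library-drug doses (not always all listed) in √10 steps, and values are medians of duplicate plates.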

[2] = compound: O=C(CCCCCCNC(=O)c1cnc(N(c2ccccc2)c2ccccc2)nc1)NO [Ricolinostat] + Cc1nc(Nc2ncc(C(=O)Nc3c(C)cccc3Cl)s2)cc(N2CCN(CCO)CC2)n1 [Dasatinib] (partner 0.075 µM)
Procedure, shortened: as §1

[3] = compound: CC1=CN2C(=O)C=C(N=C2C(=C1)C(C)NC3=CC=CC=C3)N4CCOCC4 [TGX 221] + C[C@@H](Oc1cc(-c2cnn(C3CCNCC3)c2)cnc1N)c1c(Cl)ccc(F)c1Cl [Crizotinib] (partner 1 µM)
Procedure, shortened: as §1

Work on EPLC-272H yielded a relative viability ([1]; first compound 0.08 µM) of 1.04, a relative viability ([1]; first compound 0.253 µM) of 0.881 and a relative viability ([1]; first compound 0.8 µM) of 0.822. It also gave a relative viability ([1]; first compound 8 µM) of 0.962, a relative viability ([2]; first compound 0.08 µM) of 0.308 and a relative viability ([2]; first compound 0.253 µM) of 0.387. The relative viability ([2]; first compound 0.8 µM) was 0.336, the relative viability ([2]; first compound 2.53 µM) was 0.212 and the relative viability ([3]; first compound 0.08 µM) was 0.827. For the same cell line, the relative viability ([3]; first compound 0.253 µM) was 0.57, the relative viability ([3]; first compound 0.8 µM) was 0.833 and the relative viability ([3]; first compound 8 µM) was 0.72.
Work on H3255 yielded a relative viability ([1]; first compound 0.08 µM) of 0.301, a relative viability ([1]; first compound 0.253 µM) of 0.225 and a relative viability ([1]; first compound 0.8 µM) of 0.24. The relative viability ([1]; first compound 2.53 µM) was 0.277, the relative viability ([1]; first compound 8 µM) was 0.211 and the relative viability ([2]; first compound 0.08 µM) was 0.347. The relative viability ([2]; first compound 0.253 µM) was 0.308, the relative viability ([2]; first compound 0.8 µM) was 0.318 and the relative viability ([2]; first compound 2.53 µM) was 0.308. For the same cell line, the relative viability ([3]; first compound 0.08 µM) was 0.745, the relative viability ([3]; first compound 0.253 µM) was 0.812 and the relative viability ([3]; first compound 0.8 µM) was 0.881. For the same cell line, the relative viability ([3]; first compound 2.53 µM) was 0.848 and the relative viability ([3]; first compound 8 µM) was 0.575.
For HARA, the relative viability ([1]; first compound 0.08 µM) was 0.788, the relative viability ([1]; first compound 0.253 µM) was 0.722 and the relative viability ([1]; first compound 0.8 µM) was 0.707. For the same cell line, the relative viability ([1]; first compound 2.53 µM) was 0.662, the relative viability ([1]; first compound 8 µM) was 0.766 and the relative viability ([2]; first compound 0.08 µM) was 0.271. For the same cell line, the relative viability ([2]; first compound 0.253 µM) was 0.224, the relative viability ([2]; first compound 0.8 µM) was 0.217 and the relative viability ([2]; first compound 2.53 µM) was 0.192. The relative viability ([3]; first compound 0.08 µM) was 1.06, the relative viability ([3]; first compound 0.253 µM) was 1.02 and the relative viability ([3]; first compound 0.8 µM) was 0.905. For the same cell line, the relative viability ([3]; first compound 2.53 µM) was 1.16 and the relative viability ([3]; first compound 8 µM) was 0.795.
Work on HCC-15 yielded a relative viability ([1]; first compound 0.08 µM) of 0.842, a relative viability ([1]; first compound 0.253 µM) of 0.8 and a relative viability ([1]; first compound 0.8 µM) of 0.821. It also gave a relative viability ([1]; first compound 2.53 µM) of 0.823, a relative viability ([1]; first compound 8 µM) of 0.861 and a relative viability ([2]; first compound 0.08 µM) of 0.537. It also gave a relative viability ([2]; first compound 0.253 µM) of 0.665, a relative viability ([2]; first compound 0.8 µM) of 0.642 and a relative viability ([2]; first compound 2.53 µM) of 0.653. For the same cell line, the relative viability ([3]; first compound 0.08 µM) was 0.821, the relative viability ([3]; first compound 0.253 µM) was 0.783 and the relative viability ([3]; first compound 0.8 µM) was 0.852. It also gave a relative viability ([3]; first compound 2.53 µM) of 0.772 and a relative viability ([3]; first compound 8 µM) of 0.811.
In the case of HCC-44, the relative viability ([1]; first compound 0.08 µM) is reported as 1, the relative viability ([1]; first compound 0.253 µM) is reported as 0.982 and the relative viability ([1]; first compound 0.8 µM) is reported as 0.975. For the same cell line, the relative viability ([1]; first compound 2.53 µM) was 0.984, the relative viability ([1]; first compound 8 µM) was 1.05 and the relative viability ([3]; first compound 0.08 µM) was 0.83. It also gave a relative viability ([3]; first compound 0.253 µM) of 0.794, a relative viability ([3]; first compound 0.8 µM) of 0.875 and a relative viability ([3]; first compound 2.53 µM) of 0.758. It also gave a relative viability ([3]; first compound 8 µM) of 0.733.
Cell Line HCC-78 has a relative viability ([1]; first compound 0.08 µM) of 0.702, a relative viability ([1]; first compound 0.253 µM) of 0.699 and a relative viability ([1]; first compound 2.53 µM) of 0.277. It also gave a relative viability ([1]; first compound 8 µM) of 0.794, a relative viability ([2]; first compound 0.253 µM) of 0.438 and a relative viability ([2]; first compound 0.8 µM) of 0.356. The relative viability ([2]; first compound 2.53 µM) was 0.281, the relative viability ([3]; first compound 0.08 µM) was 0.385 and the relative viability ([3]; first compound 0.253 µM) was 0.334. For the same cell line, the relative viability ([3]; first compound 2.53 µM) was 0.294 and the relative viability ([3]; first compound 8 µM) was 0.274.
Work on HCC-366 yielded a relative viability ([1]; first compound 0.08 µM) of 1.02, a relative viability ([1]; first compound 0.253 µM) of 1 and a relative viability ([1]; first compound 0.8 µM) of 0.875. The relative viability ([1]; first compound 2.53 µM) was 1.04, the relative viability ([1]; first compound 8 µM) was 1.04 and the relative viability ([2]; first compound 0.08 µM) was 0.487. It also gave a relative viability ([2]; first compound 0.253 µM) of 0.613, a relative viability ([2]; first compound 0.8 µM) of 0.576 and a relative viability ([2]; first compound 2.53 µM) of 0.451. The relative viability ([3]; first compound 0.08 µM) was 0.561, the relative viability ([3]; first compound 0.253 µM) was 0.524 and the relative viability ([3]; first compound 0.8 µM) was 0.483. For the same cell line, the relative viability ([3]; first compound 2.53 µM) was 0.448 and the relative viability ([3]; first compound 8 µM) was 0.398.
Work on HCC-827 yielded a relative viability ([1]; first compound 0.08 µM) of 0.187, a relative viability ([1]; first compound 0.253 µM) of 0.205 and a relative viability ([1]; first compound 0.8 µM) of 0.2. For the same cell line, the relative viability ([1]; first compound 2.53 µM) was 0.191, the relative viability ([1]; first compound 8 µM) was 0.205 and the relative viability ([2]; first compound 0.08 µM) was 0.24. The relative viability ([2]; first compound 0.253 µM) was 0.363, the relative viability ([2]; first compound 0.8 µM) was 0.287 and the relative viability ([2]; first compound 2.53 µM) was 0.361. For the same cell line, the relative viability ([3]; first compound 0.08 µM) was 0.884, the relative viability ([3]; first compound 0.253 µM) was 0.937 and the relative viability ([3]; first compound 0.8 µM) was 0.985. For the same cell line, the relative viability ([3]; first compound 2.53 µM) was 0.859 and the relative viability ([3]; first compound 8 µM) was 0.892.
In the case of HOP-62, the relative viability ([1]; first compound 0.08 µM) is reported as 1.15, the relative viability ([1]; first compound 0.253 µM) is reported as 0.987 and the relative viability ([1]; first compound 0.8 µM) is reported as 1.09. It also gave a relative viability ([1]; first compound 2.53 µM) of 1.02, a relative viability ([1]; first compound 8 µM) of 0.912 and a relative viability ([2]; first compound 0.08 µM) of 0.533. For the same cell line, the relative viability ([2]; first compound 0.253 µM) was 0.669, the relative viability ([2]; first compound 0.8 µM) was 0.655 and the relative viability ([2]; first compound 2.53 µM) was 0.423. The relative viability ([3]; first compound 0.08 µM) was 0.893, the relative viability ([3]; first compound 0.253 µM) was 0.873 and the relative viability ([3]; first compound 0.8 µM) was 0.992. For the same cell line, the relative viability ([3]; first compound 2.53 µM) was 0.953 and the relative viability ([3]; first compound 8 µM) was 0.88.
With IA-LM the relative viability ([1]; first compound 0.08 µM) was 0.783, the relative viability ([1]; first compound 0.253 µM) was 0.797 and the relative viability ([1]; first compound 0.8 µM) was 0.979. The relative viability ([1]; first compound 2.53 µM) was 1.01, the relative viability ([1]; first compound 8 µM) was 0.612 and the relative viability ([3]; first compound 0.08 µM) was 0.879. It also gave a relative viability ([3]; first compound 0.253 µM) of 0.711, a relative viability ([3]; first compound 0.8 µM) of 0.903 and a relative viability ([3]; first compound 2.53 µM) of 0.864. For the same cell line, the relative viability ([3]; first compound 8 µM) was 0.788.
Work on LC-2-ad yielded a relative viability ([1]; first compound 0.08 µM) of 0.943, a relative viability ([1]; first compound 0.8 µM) of 0.972 and a relative viability ([1]; first compound 2.53 µM) of 1.01. For the same cell line, the relative viability ([1]; first compound 8 µM) was 0.978, the relative viability ([2]; first compound 0.08 µM) was 0.41 and the relative viability ([2]; first compound 0.253 µM) was 0.566. The relative viability ([2]; first compound 0.8 µM) was 0.482, the relative viability ([2]; first compound 2.53 µM) was 0.455 and the relative viability ([3]; first compound 0.08 µM) was 0.438. The relative viability ([3]; first compound 0.253 µM) was 0.423, the relative viability ([3]; first compound 0.8 µM) was 0.475 and the relative viability ([3]; first compound 2.53 µM) was 0.499. For the same cell line, the relative viability ([3]; first compound 8 µM) was 0.486.
Cell Line LCLC-97TM1 has a relative viability ([1]; first compound 0.08 µM) of 1.12, a relative viability ([1]; first compound 0.253 µM) of 0.726 and a relative viability ([1]; first compound 0.8 µM) of 1.12. The relative viability ([1]; first compound 2.53 µM) was 1.05, the relative viability ([1]; first compound 8 µM) was 1.02 and the relative viability ([2]; first compound 0.08 µM) was 0.727. The relative viability ([2]; first compound 0.253 µM) was 0.853, the relative viability ([2]; first compound 0.8 µM) was 0.878 and the relative viability ([2]; first compound 2.53 µM) was 0.34. The relative viability ([3]; first compound 0.08 µM) was 0.394, the relative viability ([3]; first compound 0.253 µM) was 0.299 and the relative viability ([3]; first compound 0.8 µM) was 0.41. It also gave a relative viability ([3]; first compound 2.53 µM) of 0.263 and a relative viability ([3]; first compound 8 µM) of 0.252.
Cell Line LCLC-103H has a relative viability ([2]; first compound 0.08 µM) of 0.437, a relative viability ([2]; first compound 0.253 µM) of 0.55 and a relative viability ([2]; first compound 0.8 µM) of 0.423. The relative viability ([2]; first compound 2.53 µM) was 0.464, the relative viability ([3]; first compound 0.08 µM) was 1.12 and the relative viability ([3]; first compound 0.253 µM) was 1.06. It also gave a relative viability ([3]; first compound 0.8 µM) of 0.986, a relative viability ([3]; first compound 2.53 µM) of 0.959 and a relative viability ([3]; first compound 8 µM) of 0.876.

Source: the supplement of paper PMC10307832
